Measured values taken from patent publication US20250268971A1, “SAFFRON AS ANTI-INFLAMMATORY AGENT IN TREATING INFLAMMATORY BOWEL DISEASE” (HOWARD UNIVERSITY, priority 2020, published 2025).

Test system: human PBMCs T cells
Test: Human PBMCs T cells pro-inflammatory cytokine secretion (flow cytometry)
Format: cell-based
Protocol: A 48 well plate was coated with human anti-CD3 antibody (1 μg/ml) overnight. After washing with 1×PBS, plates were coated with human PBMCs (0.5×10^6 cells/well), human anti-CD28 (1 μg/ml), β-mercaptoethanol (1 μg/ml), different concentrations of Saffron aqueous extract (250 μg/ml, 500 μg/ml) and other constituents of saffron, Safranal (500 μM, 1 mM) (Sigma Aldrich, USA). The human PBMCS of 0.5×10^6 cells/well PBMCs were seeded in 48 well microplates in RPMI-1640 (Sigma, USA) supplemented with 10% fetal bovine serum and 1% penicillin/streptomycin at 37° C. and in 5% CO2) (day 0). At day 3, cells were stimulated with phorbol myristate acetate (PMA; 50 ng/ml)+ Ionomycin (1 μg/ml)+ Brefeldin A (1X) for 4 hrs. and cells were harvested and stained for flow cytometry. The human specific antibodies for T cells (dye; Zombi Aqua, CD45 PerCP 5.5, CD3 BV421, CD4 PETR, CD127-PECy7, CD25 BV605, CD8a AF488 and pro-inflammatory cytokines, like TNF-α AF700, IFNg APC, IL4 PE) were used to stain the PBMC cells.
In CD8+ T cells, TNFα+ expression was reduced in presence of SFE dose 500 μg/ml and safranal doses (500 μM, 1 mM) only, while IFNg+ expression was reduced in all tested doses of SFE and safranal in comparison to stimulated human PBMCs treated with media.

What does the source list for `CC1=C(C=O)C(C)(C)CC=C1` [safranal, Safranal]?
TNFα+ expression in CD8+ T cells (SFE 500 μg/ml only, safranal 500 μM, 1 mM, vs media treated stimulated PBMC): reduced; TNFα+ in CD4+ T cells (SFE 250 and 500 μg/ml, safranal 500 μM, 1 mM, anti-CD3/CD28, PMA+ionomycin stimulated, vs media): inhibitory response; IFNg+ in CD4+ T cells (SFE 250 and 500 μg/ml, safranal 500 μM, 1 mM, vs media treated stimulated PBMC): inhibitory response; IFNg+ expression in CD8+ T cells (all tested doses (SFE 250, 500 μg/ml; safranal 500 μM, 1 mM), vs media): reduced
